Laboratory results taken from patent publication US9738660B2, “Selective inhibitors for protein kinases and pharmaceutical composition and use thereof” (National Chiao Tung University, priority 2014, dated 2017).
Like-named read-outs stand apart in the source and are kept apart here.

Assays:
Assay in all cases: Kinase Profiler, residual kinase activity
Assay type in all cases: biochemical
Settings in all cases: read-out: percentage of the remaining kinase activity
CLK1 = CLK1 (Homo sapiens, UniProt P49759)
Chain of CLK1 (P49759 whole entry): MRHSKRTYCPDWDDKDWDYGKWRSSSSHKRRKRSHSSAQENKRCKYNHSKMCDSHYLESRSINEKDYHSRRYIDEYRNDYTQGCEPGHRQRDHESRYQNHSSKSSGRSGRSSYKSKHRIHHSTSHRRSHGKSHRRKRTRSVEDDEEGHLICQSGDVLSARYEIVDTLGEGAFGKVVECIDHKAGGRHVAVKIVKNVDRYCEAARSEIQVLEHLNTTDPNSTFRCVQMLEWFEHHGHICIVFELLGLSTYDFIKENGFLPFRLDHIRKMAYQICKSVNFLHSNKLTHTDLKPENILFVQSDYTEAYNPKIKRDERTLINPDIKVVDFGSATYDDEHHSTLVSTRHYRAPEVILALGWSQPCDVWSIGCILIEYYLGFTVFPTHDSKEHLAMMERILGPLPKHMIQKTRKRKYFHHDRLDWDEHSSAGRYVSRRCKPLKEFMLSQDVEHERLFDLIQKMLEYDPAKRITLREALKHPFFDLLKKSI
Description: (§1) Kinase Profiler services provided by […]. (http://www.reactionbiology.com) were used to analyze the data of the 9 type-S protein kinase inhibitors against the 40 types of protein kinases.

AXL = target: T1, AXL (Homo sapiens, UniProt P30530)
T1 construct: purchased Research Biology Corp. (http://www.reactionbiology.com)
T1 sequence (P30530 26-894): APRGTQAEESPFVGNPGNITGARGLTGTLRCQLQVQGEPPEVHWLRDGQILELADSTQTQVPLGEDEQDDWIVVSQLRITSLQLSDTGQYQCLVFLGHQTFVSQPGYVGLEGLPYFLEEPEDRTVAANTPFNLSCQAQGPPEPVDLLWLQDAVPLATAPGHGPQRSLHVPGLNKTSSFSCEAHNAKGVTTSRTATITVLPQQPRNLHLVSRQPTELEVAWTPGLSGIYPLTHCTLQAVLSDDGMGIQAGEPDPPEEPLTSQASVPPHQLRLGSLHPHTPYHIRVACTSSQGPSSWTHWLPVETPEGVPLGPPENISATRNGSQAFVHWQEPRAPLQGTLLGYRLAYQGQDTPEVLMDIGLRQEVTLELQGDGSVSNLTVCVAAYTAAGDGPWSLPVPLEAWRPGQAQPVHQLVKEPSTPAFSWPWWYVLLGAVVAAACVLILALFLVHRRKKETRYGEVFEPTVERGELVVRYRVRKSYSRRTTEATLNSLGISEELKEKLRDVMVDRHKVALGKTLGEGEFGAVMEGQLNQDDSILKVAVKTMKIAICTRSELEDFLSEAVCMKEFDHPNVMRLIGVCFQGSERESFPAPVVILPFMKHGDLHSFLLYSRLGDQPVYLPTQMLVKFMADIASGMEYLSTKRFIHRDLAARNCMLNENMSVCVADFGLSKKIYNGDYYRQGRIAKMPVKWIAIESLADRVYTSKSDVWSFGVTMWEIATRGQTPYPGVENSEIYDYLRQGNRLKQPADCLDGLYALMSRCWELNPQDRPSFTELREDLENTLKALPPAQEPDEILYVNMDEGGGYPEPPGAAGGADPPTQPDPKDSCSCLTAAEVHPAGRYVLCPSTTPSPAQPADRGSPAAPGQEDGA
Description: as §1

PDPK1 = target: T2, PDPK1 (Homo sapiens, UniProt O15530)
T2 sequence (O15530 1-556): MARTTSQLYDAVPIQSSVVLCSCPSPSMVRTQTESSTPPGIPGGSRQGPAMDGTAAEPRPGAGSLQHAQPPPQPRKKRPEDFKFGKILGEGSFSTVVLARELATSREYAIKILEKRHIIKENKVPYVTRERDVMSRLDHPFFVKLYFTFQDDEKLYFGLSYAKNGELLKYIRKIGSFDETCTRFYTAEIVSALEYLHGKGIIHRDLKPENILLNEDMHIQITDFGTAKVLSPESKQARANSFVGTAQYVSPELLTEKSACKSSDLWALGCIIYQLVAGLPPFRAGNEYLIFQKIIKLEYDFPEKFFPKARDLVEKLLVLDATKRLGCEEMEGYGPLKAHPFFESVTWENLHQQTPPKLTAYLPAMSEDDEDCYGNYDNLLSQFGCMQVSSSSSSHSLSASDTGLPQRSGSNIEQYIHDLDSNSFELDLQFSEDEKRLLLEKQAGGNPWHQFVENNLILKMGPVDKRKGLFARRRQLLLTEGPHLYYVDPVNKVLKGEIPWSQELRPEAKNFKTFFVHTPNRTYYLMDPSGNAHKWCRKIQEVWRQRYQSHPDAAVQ
Description: as §1

PIM1 = PIM1 (Homo sapiens, UniProt P11309)
Chain of PIM1 (P11309 whole entry): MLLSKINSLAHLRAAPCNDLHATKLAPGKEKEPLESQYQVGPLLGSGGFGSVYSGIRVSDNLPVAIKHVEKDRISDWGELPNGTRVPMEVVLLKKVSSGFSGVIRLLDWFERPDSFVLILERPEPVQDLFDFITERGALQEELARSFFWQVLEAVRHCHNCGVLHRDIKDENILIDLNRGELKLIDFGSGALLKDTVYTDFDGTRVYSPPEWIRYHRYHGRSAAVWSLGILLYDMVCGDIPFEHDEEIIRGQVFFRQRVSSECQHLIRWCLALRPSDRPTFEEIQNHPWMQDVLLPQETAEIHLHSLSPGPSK
Description: as §1

STK11 = target: T3, STK11 (Homo sapiens, UniProt Q15831)
T3 sequence (Q15831 1-433): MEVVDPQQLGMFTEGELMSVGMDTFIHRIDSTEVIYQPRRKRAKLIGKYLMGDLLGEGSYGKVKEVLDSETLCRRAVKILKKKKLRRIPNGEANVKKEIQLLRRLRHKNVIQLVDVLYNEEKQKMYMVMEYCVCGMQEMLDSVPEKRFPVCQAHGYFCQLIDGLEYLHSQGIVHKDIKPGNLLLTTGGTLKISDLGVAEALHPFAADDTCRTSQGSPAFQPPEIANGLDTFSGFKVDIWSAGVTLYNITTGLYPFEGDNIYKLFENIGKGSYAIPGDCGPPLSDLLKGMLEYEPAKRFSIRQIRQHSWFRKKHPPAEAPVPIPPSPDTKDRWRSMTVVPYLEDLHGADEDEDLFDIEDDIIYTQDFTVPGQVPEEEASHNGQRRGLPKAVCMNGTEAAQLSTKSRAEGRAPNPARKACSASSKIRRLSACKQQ
T3 sequence (Q7RTN6 1-431 partner): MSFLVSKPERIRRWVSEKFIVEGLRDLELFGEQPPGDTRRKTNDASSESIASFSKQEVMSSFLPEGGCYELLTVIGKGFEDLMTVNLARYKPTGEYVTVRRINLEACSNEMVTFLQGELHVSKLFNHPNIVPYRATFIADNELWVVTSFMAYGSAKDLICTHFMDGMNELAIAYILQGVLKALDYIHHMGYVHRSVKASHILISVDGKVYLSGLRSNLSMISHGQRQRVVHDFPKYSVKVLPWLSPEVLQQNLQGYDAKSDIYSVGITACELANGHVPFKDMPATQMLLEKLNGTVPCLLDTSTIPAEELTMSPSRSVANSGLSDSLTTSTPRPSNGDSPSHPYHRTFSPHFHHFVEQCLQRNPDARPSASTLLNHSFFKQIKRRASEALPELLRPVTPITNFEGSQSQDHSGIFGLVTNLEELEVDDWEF
T3 sequence (Q9Y376 1-341 partner): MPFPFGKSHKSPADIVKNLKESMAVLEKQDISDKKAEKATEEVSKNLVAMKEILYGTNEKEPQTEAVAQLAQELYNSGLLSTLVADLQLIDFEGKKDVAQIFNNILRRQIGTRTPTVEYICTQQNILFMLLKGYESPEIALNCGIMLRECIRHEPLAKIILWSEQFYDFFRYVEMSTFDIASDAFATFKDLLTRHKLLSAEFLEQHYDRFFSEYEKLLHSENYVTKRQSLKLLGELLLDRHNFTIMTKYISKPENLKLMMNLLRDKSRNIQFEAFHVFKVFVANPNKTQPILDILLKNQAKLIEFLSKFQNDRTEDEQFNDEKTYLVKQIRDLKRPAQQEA
Description: as §1

## COC1C(N(C)C(=O)C(N)Cc2c[nH]cn2)CC2OC1(C)n1c3ccccc3c3c4c(c5c6ccccc6n2c5c31)C(=O)NC4 (stereo not shown) [Compound 1]
CLK1; CLK1, inhibitor at 500 nM
  remaining activity at 0.5 µM: 15.9%
AXL; AXL, inhibitor at 500 nM
  remaining activity at 0.5 µM: 35.4%
PDPK1; PDPK1, inhibitor at 500 nM
  remaining activity at 0.5 µM: 0.5%
PIM1; PIM1, inhibitor at 500 nM
  remaining activity at 0.5 µM: 2.4%
STK11; STK11, inhibitor at 500 nM
  remaining activity at 0.5 µM: 88.7%

## COC1C(N(C)C(=O)C(N)Cc2cn(C(=O)OC(C)(C)C)c3ccccc23)CC2OC1(C)n1c3ccccc3c3c4c(c5c6ccccc6n2c5c31)C(=O)NC4 (stereo not shown) [Compound 2]
CLK1; CLK1, inhibitor at 500 nM
  remaining activity at 0.5 µM: 107%
AXL; AXL, inhibitor at 500 nM
  remaining activity at 0.5 µM: 100%
PDPK1; PDPK1, inhibitor at 500 nM
  remaining activity at 0.5 µM: 81%
PIM1; PIM1, inhibitor at 500 nM
  remaining activity at 0.5 µM: 88.9%
STK11; STK11, inhibitor at 500 nM
  remaining activity at 0.5 µM: 106%

## COC1C(N(C)C(=O)C(N)Cc2ccc(OC(C)(C)C)cc2)CC2OC1(C)n1c3ccccc3c3c4c(c5c6ccccc6n2c5c31)C(=O)NC4 (stereo not shown) [Compound 4]
CLK1; CLK1, inhibitor at 500 nM
  remaining activity at 0.5 µM: 98.6%
AXL; AXL, inhibitor at 500 nM
  remaining activity at 0.5 µM: 77.2%
PDPK1; PDPK1, inhibitor at 500 nM
  remaining activity at 0.5 µM: 13.3%
PIM1; PIM1, inhibitor at 500 nM
  remaining activity at 0.5 µM: 44.2%
STK11; STK11, inhibitor at 500 nM
  remaining activity at 0.5 µM: 113%

## COC1C(N(C)C(=O)C(N)Cc2ccc(O)cc2)CC2OC1(C)n1c3ccccc3c3c4c(c5c6ccccc6n2c5c31)C(=O)NC4 (stereo not shown) [Compound 5]
CLK1; CLK1, inhibitor at 500 nM
  remaining activity at 0.5 µM: 29.6%
AXL; AXL, inhibitor at 500 nM
  remaining activity at 0.5 µM: 60.3%
PDPK1; PDPK1, inhibitor at 500 nM
  remaining activity at 0.5 µM: 2%
PIM1; PIM1, inhibitor at 500 nM
  remaining activity at 0.5 µM: 3%
STK11; STK11, inhibitor at 500 nM
  remaining activity at 0.5 µM: 102%

## COC1C(N(C)C(=O)C(N)CCC(=O)OC(C)(C)C)CC2OC1(C)n1c3ccccc3c3c4c(c5c6ccccc6n2c5c31)C(=O)NC4 (stereo not shown) [Compound 6]
CLK1; CLK1, inhibitor at 500 nM
  remaining activity at 0.5 µM: 86.6%
AXL; AXL, inhibitor at 500 nM
  remaining activity at 0.5 µM: 60.9%
PDPK1; PDPK1, inhibitor at 500 nM
  remaining activity at 0.5 µM: 3.4%
PIM1; PIM1, inhibitor at 500 nM
  remaining activity at 0.5 µM: 43%
STK11; STK11, inhibitor at 500 nM
  remaining activity at 0.5 µM: 104%

## COC1C(N(C)C(=O)C(N)CCC(=O)O)CC2OC1(C)n1c3ccccc3c3c4c(c5c6ccccc6n2c5c31)C(=O)NC4 (stereo not shown) [Compound 7]
CLK1; CLK1, inhibitor at 500 nM
  remaining activity at 0.5 µM: 32.3%
AXL; AXL, inhibitor at 500 nM
  remaining activity at 0.5 µM: 26.8%
PDPK1; PDPK1, inhibitor at 500 nM
  remaining activity at 0.5 µM: 0.5%
PIM1; PIM1, inhibitor at 500 nM
  remaining activity at 0.5 µM: 2.5%
STK11; STK11, inhibitor at 500 nM
  remaining activity at 0.5 µM: 79.9%

## COC1C(N(C)CCOc2cccc([N+](=O)[O-])c2)CC2OC1(C)n1c3ccccc3c3c4c(c5c6ccccc6n2c5c31)C(=O)NC4 (stereo not shown) [Compound 8]
CLK1
  remaining activity at 0.5 µM: 74.8%
AXL
  remaining activity at 0.5 µM: 46.3%
PDPK1
  remaining activity at 0.5 µM: 4.7%
PIM1
  remaining activity at 0.5 µM: 24.6%
STK11
  remaining activity at 0.5 µM: 101%

## COC1C(N(C)Cc2ccc(-c3ccccc3)cc2)CC2OC1(C)n1c3ccccc3c3c4c(c5c6ccccc6n2c5c31)C(=O)NC4 (stereo not shown) [Compound 9]
CLK1; CLK1, inhibitor at 500 nM
  remaining activity at 0.5 µM: 73.7%
AXL; AXL, inhibitor at 500 nM
  remaining activity at 0.5 µM: 37.6%
PDPK1; PDPK1, inhibitor at 500 nM
  remaining activity at 0.5 µM: 2.7%
PIM1; PIM1, inhibitor at 500 nM
  remaining activity at 0.5 µM: 21.8%
STK11; STK11, inhibitor at 500 nM
  remaining activity at 0.5 µM: 91.9%

## CN[C@@H]1C[C@H]2O[C@@](C)([C@@H]1OC)n1c3ccccc3c3c4c(c5c6ccccc6n2c5c31)C(=O)NC4 [STU, staurosporine, reference compound]
AXL
  remaining activity at 0.5 µM: 8.8%
PDPK1; PDPK1, inhibitor at 500 nM
  remaining activity at 0.5 µM: -1.8%
PIM1
  remaining activity at 0.5 µM: 0.6%
